According to paper PMC4313372, “MHJ_0461 is a multifunctional leucine aminopeptidase on the surface of Mycoplasma hyopneumoniae” (Open Biology, 2015):

What was measured:
rMHJ_0461 [1] = biological target: T1, rMHJ_0461 (Mesomycoplasma hyopneumoniae, UniProt Q4A9M4); assay: fluorogenic aminopeptidase assay, leucine-AMC, […] min preincubation; assay type: biochemical; design: gene pepA; multimers of about 500 and 800 kDa; conditions: read-out: % inhibition at 1 mM
rMHJ_0461 [2] = biological target: T1, rMHJ_0461; design: gene pepA; conditions: 50 uM substrate, 5 mM Mn2+, pH 7.2, 37 C
[3] = biological target: recombinant MHJ_0461 (Mycoplasma hyopneumoniae strain J); assay: native gel or EMSA; Blue Native PAGE of purified rMHJ_0461; complexes identified by LC-MS/MS of tryptic peptides

| Molecule | inhibition at 1000 µM (rMHJ_0461 [1]) [%] | other results |
| --- | --- | --- |
| CC(C)C[C@H](NC(=O)[C@@H](O)[C@H](N)Cc1ccccc1)C(=O)O [bestatin] | 99 | – |
| CSCC[C@H](N)C(=O)Nc1ccc2c(C)cc(=O)oc2c1 [methionine-AMC] | – | fluorogenic AMC release assay (rMHJ_0461 [2]): leucine > methionine > phenylalanine > arginine > alanine > isoleucine > glycine > valine |
| recombinant MHJ_0461 (enzyme) | – | stoichiometry N [3]: > 10 subunits |
| CC(C)C[C@@H](N)[C@H](O)C(=O)N[C@H](C(=O)N[C@H](C(=O)N[C@@H](CC(=O)O)C(=O)O)C(C)C)C(C)C [amastatin] | 69 | – |
